Patent US20120289884A1, “Fused Ring Diarylamino Photosensitizers for Phototherapy” (Mallinckrodt LLC, priority 2011, published 2012)
Like-named read-outs stand apart in the source and are kept apart here.

System: U937 leukemia cancer cell line
Assay: Cell viability (phototoxicity) WST-1 assay with and without UV light;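 note: WST-1 absorbance at 480 and 600 nm after 2 h compound preincubation, 20 min UV irradiation (peak 365 nm) or none, then 24 h recovery at 37 °C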
Details: for activity under the photolytic conditions (in words): UV-A/UV-B light; for IC50: Homo sapiens, U-937, 20 min; for cell viability with increasing concentration of compound, light exposure: 20 minutes light exposure
[1] = read-out: VC50/20, U937 cells, 20 minutes UV light exposure

Method: The compounds were dissolved in DMSO (8 mM) and diluted with the cell culture media such that the amount of the DMSO exposed to the cells remained below 0.5% (64 mM). After light exposure, cell viability is assessed using a WST-1 (4-[3-(4-Iodophenyl)-2-(4-nitrophenyI)-2H-5-tetrazolio]-1, 3-benzene disulfonate) cell proliferation assay (Roche Diagnostics, NJ, USA). At the end of 22 hours, WST-1 is added to each well of plate. After 2 hours of incubation, the metabolic activity is quantified by absorbance measurements at 480nm and 600nm using a Synergy 4 plate reader (BioTEK Instruments, VT, USA). The number of viable cells is determined and percent viability is determined:
Viability measurements are analyzed to provide VC50/20 values which is defined as the concentration at which 50% decrease in cell viability is observed when the cells are exposed to light and the photosensitizes for 20 minutes.
Photoxicity of diarylamines were tested for their photo-toxicity in U937 cells (ATCC,VA) a monocytic leukemia cell line. Cells were cultured, harvested and counted with trypan blue exclusion method to ensure 95% viability. The cells were then plated at a density of 20,000 cells/well in flat bottom 96 well plates and incubated overnight. On the following day, dilutions of the compounds to be screened were prepared in complete RPMI media and added to cells followed by a 2-hour incubation. After the preincubation time, the cells were irradiated for 20 minutes with 100 W UV lamp (Model B-100A, UVP, Upland, Calif.) with peak output at 365 nm and a bandwidth of about 50 nm. The light source was not optimized for each compound with respect to power and wavelength. The total power near the surface of the microtiter plate is about 8 mW. The temperature at the surface of the microtiter plates were kept below 37° C. with external air cooling. After light exposure, cells were allowed to recover at 37° C. in a CO2 incubator for 24 h, and thereafter the viability was assessed using a WST-1 (4-[3-(4-Iodophenyl)-2-(4-nitrophenyl)-2H-5-tetrazolio]-1,3-benzene disulfonate) cell proliferation assay (Roche Diagnostics, NJ, USA). At the end of 22 hours, WST-1 was added to each well of plate. After 2 hours of incubation, the metabolic activity was quantified by absorbance measurements at 480 nm and 600 nm using a Synergy 4 plate reader (BioTEK Instruments, VT, USA). The percent viability was calculated as [OD value of treated cells/mean OD value of control cells]×100%). The percent cell viability assay values were then plotted in Graph Pad Prism (Graph Pad Software Inc, La Jolla, Calif.) and VC50/20 values for each compound was obtained using nonlinear regression analysis of the log inhibitor versus response in a 4 parameter curve fit. Each compound was tested for minimum of n=3. The corresponding control conditions for the cell viability assays were: (a) DMSO only (no photosensitizer), no light; (b) DMSO only (no photosensitizer) light; and (c) photosensitizer, no light (dark toxicity).
A general procedure is carried out for measuring cell viability upon exposure of U937 leukemia cells to a number of diarylamino photosensitizers of the invention and light. U937 cells are harvested and counted with trypan blue exclusion method to ensure viability. The cells are then plated at a density of 20,000 cells/well in flat bottom 96 well plates and incubated overnight. On the following day, dilutions of the compounds to be screened are prepared in complete RPMI media and added to cells followed by a 2 hour incubation. After the preincubation time, cells are exposed to UV light for various times and then allowed to recover at 37° C. in a CO2 incubator for 24 h.
The cell viability analysis is carried out using a human myeloid leukemia U937 cell line by the standard WST-1 assay.

Structure (SMILES) | activity under the photolytic conditions (in words) (U937 cells) | IC50 (read-out: VC50/20) | IC50 [1] | cell viability with increasing concentration of compound, light exposure (U937 cells) | cell viability with increasing concentration of compound, no light exposure (dark toxicity) (U937 cells, no light exposure)
CN1c2ccccc2Cc2ccccc21 [(FX19), N-methylacridan] | decreased the activity | – | – | – | –
C1=Cc2ccccc2Nc2ccccc21 [(FX8), 5H-Dibenz[b,f]azepine] | very active | 2.58 ± 1.14 µM | ~2.58 µM | substantial decrease in cell viability | –
c1ccc(Nc2ccccc2)cc1 [(FX20), Diphenylamine] | inactive | – | – | – | –
c1ccc2c(c1)Cc1ccccc1N2 [(FX9), acridan] | very potent | 0.68 ± 0.11 µM | 0.68 µM | substantial decrease in cell viability | no substantial decrease in cell viability
c1ccc2c(c1)Nc1ccccc1S2 [(FX10), phenothiazine] | highly active | 1.39 ± 0.11 µM | ~1.39 µM | substantial decrease in cell viability | –
c1ccc2c(c1)Nc1ccccc1O2 [(FX11), Phenoxazine] | weakly active | 14.5 ± 1.54 µM | – | substantial decrease in cell viability | –
c1ccc(C2c3ccccc3Nc3ccccc32)cc1 [(FX7)] | less active | – | – | – | –
c1ccc2c(c1)[nH]c1ccccc12 [(FX3), carbazole] | moderately active | 5.56 ± 1.15 µM | ~5 µM | substantial decrease in cell viability | –
c1ccc(C2c3ccccc3Nc3ccccc32)cc1 [(FX17), 9-phenylacridan] | most potent | 0.17 ± 0.01 µM | 0.17 µM | substantial decrease in cell viability | –
